{
  "source": "patent US7914768B2",
  "about": "“Stabiliser for radiopharmaceuticals” (GE Healthcare Limited, priority 2000, dated 2011)",
  "data": [
    {"experiment": "Rcp of ^99mTc-HMPAO after addition of a single stabiliser, two step process (Example 1)", "assay_type": "physicochemical", "settings": "additive added 2 minutes post-radiolabelling; amount as in table; n = 3 (*n = 1)", "protocol": "To each of ten vials each containing 0.5 mg of HMPAO and 4.0 μg of Sn^2+ (stannous), was added sodium pertechnetate (1.48 GBq in 5 ml of saline) to carry out the radiolabelling. To each of 9 of the ten reconstituted vials was individually added the compound shown in Table 1 at a time of 2 minutes post-radiolabelling. Nothing was added to the remaining vial. At 1 minute and 3 hours after the addition, an aliquot was taken from each vial and the Rcp measured by a combination of three chromatographic systems (stationary phase/developing solvent: silica gel/methyl ethyl ketone, silica gel/saline, filter paper/50% aqueous acetonitrile).", "values": [
      {"smiles": "Nc1ccc(C(=O)O)cc1", "note": "[4-Aminobenzoic acid, 4-aminobenzoic acid]", "Rcp 1 min from addition (%)": "80 ± 8%", "Rcp 3 hours from addition (%)": "67 ± 5%"},
      {"smiles": "O=C1O[C@H]([C@@H](O)CO)C(O)=C1O", "note": "[Ascorbic acid]", "Rcp 1 min from addition (%)": "83* %", "Rcp 3 hours from addition (%)": "41* %"},
      {"smiles": "[Cl][Co][Cl]", "note": "[Cobalt chloride]", "Rcp 1 min from addition (%)": "94 ± 3%", "Rcp 3 hours from addition (%)": "89 ± 2%"},
      {"smiles": "O=C(NCCO)c1cc(O)ccc1O", "note": "[Gentisic acid ethanolamide]", "Rcp 1 min from addition (%)": "61 ± 3%", "Rcp 3 hours from addition (%)": "29 ± 13%"},
      {"smiles": "O=C(O)c1cc(O)ccc1O", "note": "[Gentisic acid]", "Rcp 1 min from addition (%)": "87 ± 2%", "Rcp 3 hours from addition (%)": "77 ± 3%"},
      {"smiles": "O=P(O)(O)CP(=O)(O)O", "note": "[Methylene diphosphonic acid, methylenediphosphonic acid]", "Rcp 1 min from addition (%)": "79* %", "Rcp 3 hours from addition (%)": "30* %"},
      {"smiles": "Nc1ccc(C(=O)[O-])cc1.[Na+]", "note": "[Sodium4-amino-benzoate, sodium 4-aminobenzoate]", "Rcp 1 min from addition (%)": "69 ± 5%", "Rcp 3 hours from addition (%)": "39 ± 11%"},
      {"smiles": "O=C1O[C@H]([C@@H](O)CO)C([O-])=C1O.[Na+]", "note": "[Sodium ascorbate]", "Rcp 1 min from addition (%)": "90* %", "Rcp 3 hours from addition (%)": "51* %"},
      {"smiles": "O=C(O)CCC(=O)O", "note": "[Succinic acid]", "Rcp 1 min from addition (%)": "51* %", "Rcp 3 hours from addition (%)": "14* %"}
    ]}
  ]
}
